Where two headings read alike, the source gives them in different places.
Key:
[1] = test system: S. aureus DSM 11729 (MRSA); assay: microbe, parasite or virus in culture; type: cell-based, Staphylococcus aureus
Description: (§1) The bacterial inoculum was established by the dilution method from actively-growing cultures in Mueller-Hinton broth, standardized with 0.5 McFarland turbidity standard as described in the CLSI method M26-A.
(§2) To determine the prevention of biofilm formation, both the bacterial inoculum and the antimicrobial agents were added simultaneously to the plates. The plates were incubated at 37° C. for 24 h and the optical density was read at 625 nm on a microtitre plate reader (BioTek Powerwave XS, Winooski, USA). The MIC was obtained as the lowest concentration of antimicrobial showing total inhibition of bacterial growth. […]
(§3) FIC=MICA[combination]/MICA[alone]+MICB[combination]/MICB[alone] […]
(§4) In order to assess for the prevention of biofilm formation by both Gram-positive and Gram-negative bacteria, the bacterial inoculum and antimicrobial agents were added simultaneously in the plates. The range of concentrations of antimicrobial agents was 0-500 μg/ml NP108 and 0-320 μg/ml cysteamine against the Gram-negative bacteria P. aeruginosa ATCC BAA-47 and 0-1000 μg/ml NP108 and 0-320 μg/ml cysteamine against the Gram-positive MRSA.

[2] = test system: P. aeruginosa ATCC BAA-47; assay: microbe, parasite or virus in culture; type: cell-based, Pseudomonas aeruginosa
Description: as §1, §2, §3, §4

[3] = test system: P. aeruginosa strains (7); assay: microbe, parasite or virus in culture; type: cell-based, Pseudomonas aeruginosa; conditions: agent alone, range over strains
Description: as §1
(§5) To determine the prevention of biofilm formation, both the bacterial inoculum and the antimicrobial agents were added simultaneously to the plates. The plates were incubated at 37° C. for 24 h and the optical density was read at 625 nm on a microtitre plate reader (BioTek Powerwave XS, Winooski, USA). The MIC was obtained as the lowest concentration of antimicrobial showing total inhibition of bacterial growth.
(§6) The FIC corresponds to an interaction coefficient indicating whether the combination of antimicrobial agents is synergistic, additive, antagonist or neutral. The FIC is determined by comparing the activity of an agent in combination (MIC of agent A+agent B) with the activity of the agent alone (MIC of agent A or agent B) as follow (Singh et al., 2000):
(§7) FIC=MICA[combination]/MICA[alone]+MICB[combination]/MICB[alone]
(§8) Additive combinations of two antimicrobial agents are indicated by a FIC index of 1, whereas a FIC index <1 indicates synergistic combinations. Neutral combinations would give a FIC between 1 and 4, a FIC index higher than 4 indicates antagonist effects between the two antimicrobial agents.
(§9) Summary of the activity of the tested antimicrobial agents against the Gram-negative P. aeruginosa strains and the Gram-positive Staphylococcus spp. The number into brackets indicates the maximum number of strains tested. MIC: minimum inhibition concentration; MBEC: minimum biofilm eradication concentration; FIC: fractional inhibitory concentration.

[4] = test system: Staphylococcus spp (4); assay: microbe, parasite or virus in culture; type: cell-based; conditions: agent alone, range over strains
Description: as §1, §5, §6, §7, §8, §9

[5] = test system: P. aeruginosa strains (7) biofilm cells; type: cell-based, Pseudomonas aeruginosa; conditions: agent alone
Description: (§10) The FIC was also calculated to assess the interaction of two antimicrobial agents in combination against bacterial biofilms. The same formulae applied, using MBEC instead of MIC.
(§11) A total volume of 100 μl bacterial inoculum in Mueller-Hinton was added to each well of 96-well plates (challenge plates) and the plates were incubated at 37° C. for 24 h on a gyrorotary shaking platform (Grant-bio PS-3D, Shepreth, England) at 24 rpm to allow for biofilm formation.
(§12) The challenge plates were then rinsed once with sterile PBS (lx) and two-fold serial dilutions of antimicrobial agents in Mueller-Hinton were added to the challenge plates. The challenge plates were incubated at 37° C. for 24 h on a gyrorotary shaking platform (Grant-bio PS-3D, Shepreth, England) at 24 rpm.
(§13) The supernatants from each of the challenge plates were transferred into fresh plates and the optical density was measured at 625 nm on a microtitre plate reader (BioTek Powerwave XS, Winooski, USA). The MBEC was obtained by the lowest concentration of antimicrobial showing no bacterial growth.
as §9

[6] = test system: Staphylococcus spp (4) biofilm cells; type: cell-based; conditions: for MBEC, Staphylococcus spp (4): agent alone, biofilm cells
Description: as §10, §11, §12, §13, §9

[7] = test system: P. aeruginosa strains (7) persister cells; assay: Persister cells in biofilms (live/dead staining), summary over strains; type: cell-based, Pseudomonas aeruginosa; conditions: agent alone
Description: (§14) Following transfer of the supernatant from the challenge plates, the biofilms were rinsed once with sterile PBS (lx) and 100 μl of BacLight live/dead fluorescent staining solution (Invitrogen, Paisley, UK) containing 4 μM SYTO9 and 20 μM propidium iodide (PI) in sterile PBS (lx) were added to the wells of the challenge plates. The plates were incubated at room temperature in the dark for 15 min and the fluorescence was read at 485(ex)/528(em) and 485(ex)/645(em) for SYTO9 and PI fluorescence, respectively on a fluorescence microtitre plate reader (BioTek Synergy HT, Winooski, USA) with the sensitivity set at 50 and bottom optics position was selected. Direct observation of the biofilms with an Axiovert 40 fluorescence microscope (Zeiss, Gottingen, Germany) allowed identifying the presence of live and dead bacteria and pictures of the biofilms were taken at 100 to 400-fold magnification.
(§15) The relative viability of persister cells was determined by the live/dead fluorescence measurements ratio and microscopic observations were used to confirm the presence or absence of live cells.
as §9

[8] = test system: Staphylococcus spp (4) persister cells; assay: as above; type: cell-based; conditions: agent alone; persister cells
Description: as §14, §15, §9

[9] = test system: P. aeruginosa ATCC BAA-47 (PAO1) biofilm cells; assay: MBEC against 24 h-old biofilm; type: cell-based, Pseudomonas aeruginosa
Description: as §10, §11, §12, §13
(§16) The assessment of the activity of NP108 and cysteamine against bacterial biofilms was carried out with 24 h-old biofilms and the activity of both compounds in combination was also determined. The activity of the antimicrobial agents against bacterial biofilms was determined by their activity against the biofilm cells and against the persister cells.

[10] = test system: S. aureus DSM 11729 biofilm cells; type: cell-based, Staphylococcus aureus; conditions: for MBEC, S. aureus (MRSA) DSM 11729 biofilm cells: agent alone
Description: as §10, §11, §12, §13, §16

[11] = test system: P. aeruginosa ATCC27853 biofilm cells; type: cell-based, Pseudomonas aeruginosa; conditions: agent alone; FIG. 21a
Description: as §11, §12, §13

[12] = test system: P. aeruginosa ATCC BAA-47 (PAO1) persister cells; assay: Relative viability of persister cells (SYTO9/PI live/dead fluorescence, microscopy); type: cell-based, Pseudomonas aeruginosa; conditions: agent alone; for activity against persister cells of P. aeruginosa ATCC BAA-47: relative viability remained significant, FIG. 12
Description: as §14, §15
The activity of NP108 and cysteamine against the persister cells was assessed using a fluorescence staining method to determine the relative viability of the cells. The nucleic acid-binding fluorescent molecules used were SYTO9 and PI, which penetrate all bacterial cells (green fluorescence) and membrane-disrupted cells (red fluorescence), respectively.

[13] = test system: S. aureus DSM 11729 persister cells; assay: as above; type: cell-based, Staphylococcus aureus; conditions: agent alone, at low concentrations; FIG. 18
Description: as §14, §15
The activity of NP108 and cysteamine against the persister cells was assessed using a fluorescence staining method to determine the relative viability of the cells. […]

[14] = test system: Gram-positive and Gram-negative persister cells; assay: Relative viability of persister cells (SYTO9/PI live/dead fluorescence); type: cell-based; conditions: lowest concentration tested; FIG. 10
Description: as §14, §15

[15] = test system: S. aureus DSM 11729 (MRSA); conditions: data not shown; for bactericidal concentration, S. aureus DSM 11729: agent alone
[16] = test system: P. aeruginosa ATCC BAA-47; conditions: data not shown; for bactericidal concentration, P. aeruginosa ATCC BAA-47: agent alone
[17] = agent alone, prevention of biofilm formation, 24 h

Molecule | MBEC, P. aeruginosa strains (7) [5] | MBEC, Staphylococcus spp (4) [6] | Persisters, active concentration, P. aeruginosa strains (7) [7] | Persisters, active concentration, Staphylococcus spp (4) [8] | MBEC [alone], P. aeruginosa ATCC BAA-47 biofilm cells ([9]; agent alone) [µg/mL] | MBEC, S. aureus (MRSA) DSM 11729 biofilm cells [10] [µg/mL] | activity against persister cells of P. aeruginosa ATCC BAA-47 [12] | activity against persister cells of S. aureus DSM 11729 [13] | bactericidal concentration, S. aureus DSM 11729 [15] | bactericidal concentration, P. aeruginosa ATCC BAA-47 [16] [µg/mL] | MIC, P. aeruginosa strains (7) [3] [µg/mL] | MIC, Staphylococcus spp (4) [4] [µg/mL] | also measured
NCCS [Cysteamine, cysteamine, reference compound] | >5,000 μg/ml | >25,000 μg/ml | 500-6,250 μg/ml | 6,250-12,500 μg/ml | > 100.00 | 250 | lack of activity | lack of activity | more than 320 μg/ml | > 320 |  |  | MIC ([1]; Staphylococcus aureus, agent alone, prevention of biofilm formation, 24 h): > 320 µg/mL; MIC ([2]; Pseudomonas aeruginosa, ATCCBAA47, agent alone, prevention of biofilm formation, 24 h): 320 µg/mL; MIC ([3]; Pseudomonas aeruginosa): 300 to 2500 µg/mL; MIC ([4]; Staphylococcus): 300 to 625 µg/mL; MBEC cysteamine[combination], P. aeruginosa ATCC BAA-47 biofilm cells ([9]; with 250 μg/ml NP108): 62.5 µg/mL; MBEC cysteamine[combination], S. aureus DSM 11729 biofilm cells ([10]; with 31.25 μg/ml NP108): 62.5 µg/mL; MBEC alone, P. aeruginosa ATCC27853 [11]: more than 100 mg/ml; concentration that suppressed the viability of Gram-positive and Gram-negative persister cells [14]: ≤ 6.25 mg/mL
poly-L-lysine, hydrobromide [NP108] |  | 125 to 250 µg/mL |  | >500 µg/mL | > 500 | 125 | lack of activity | lack of activity | 125 µg/mL | 250 | 31.25 to 500 | 16 to 125 | MIC of NP108 in the presence of cysteamine, S. aureus DSM 11729 ([1]; 320 μg/ml cysteamine added): 15.625 µg/mL; MIC, S. aureus DSM 11729 [1, 17]: 125 µg/mL; MIC of NP108 in the presence of cysteamine, S. aureus DSM 11729 ([1]; in the presence of 40 μg/ml cysteamine): 31.25 µg/mL; MIC, P. aeruginosa ATCC BAA-47 [2, 17]: 62.5 µg/mL; MIC of NP108 in the presence of cysteamine, P. aeruginosa ATCC BAA-47 ([2]; in the presence of 160 μg/ml cysteamine): 31.25 µg/mL; NP108 concentration giving complete inhibition of bacterial growth, P. aeruginosa ATCC BAA-47 biofilm cells ([9]; with 31.25 μg/ml cysteamine): 500 µg/mL; MBEC NP108[combination], P. aeruginosa ATCC BAA-47 biofilm cells ([9]; with 62.5 to 500 μg/ml cysteamine): 250 µg/mL; MBEC NP108[combination], S. aureus DSM 11729 biofilm cells ([10]; with 62.5 μg/ml cysteamine): 31.25 µg/mL; bactericidal concentration of NP108 in combination, S. aureus DSM 11729 ([15]; with ≥80 μg/ml cysteamine): 62.5 µg/mL; bactericidal concentration of NP108 in combination, S. aureus DSM 11729 ([15]; with ≥160 μg/ml cysteamine): 31.25 µg/mL; bactericidal concentration of NP108 in combination, P. aeruginosa ATCC BAA-47 ([16]; with 320 μg/ml cysteamine): 125 µg/mL
N=C(N)NCCC[C@@H](N)C(=O)N[C@H](CCCNC(=N)N)C(=O)N[C@H](CCCNC(=N)N)C(=O)N[C@H](CCCNC(=N)N)C(=O)N[C@H](CCCNC(=N)N)C(=O)N[C@H](CCCNC(=N)N)C(=O)N[C@H](CCCNC(=N)N)C(=O)N[C@H](CCCNC(=N)N)C(=O)N[C@H](CCCNC(=N)N)C(=O)N[C@H](CCCNC(=N)N)C(=O)N[C@H](CCCNC(=N)N)C(=O)N[C@H](CCCNC(=N)N)C(=O)N[C@H](CCCNC(=N)N)C(=O)O [NP339, dRdRdRdRdRdRdRdRdRdRdRdRdR] | >5,000 μg/ml | 156 to 625 µg/mL | 625 µg/mL |  |  |  |  |  |  |  | 62.5 | 4 to 128 | MBEC against biofilms of 3 Staphylococcus species ([6]; FIG. 5, range over 3 species): 156 to 625 µg/mL; MBEC, P. aeruginosa BAA-47 (PAO1); highest dose tested not sufficient to inhibit 100% of the biofilm cells ([9]; agent alone, FIG. 5): > 5 mg/mL; concentration that inhibits the viability of P. aeruginosa BAA-47 (PAO1) persister cells ([12]; FIG. 6, FIG. 8): 625 µg/mL

— patent US20190175528A1, “INHIBITION OF BIOFILM ORGANISMS” (NovaBiotics Limited, priority 2009, published 2019)
